The values that follow come from article PMC4222822, “Discovery and Characterization of a Potent and Selective Inhibitor of Aedes aegypti Inward Rectifier Potassium Channels” (PLoS ONE, 2014).

Read-outs that look alike come from different tables or passages of the source.

Assay [1] has as its target AeKir1 (Aedes aegypti, UniProt L0EQS9). In words: Tl+ flux assay in T-REx-HEK293-AeKir1 cells. Particulars: for IC50: read-out: IC50±SEM. The format is cell-based. The method, then: Tl^+ flux assays were performed essentially as described previously, [18], [19]. Briefly, stably transfected T-Rex-HEK-293 cells expressing AeKir1 channels were cultured overnight in 384-well plates (20,000 cells/20 µL/well black-walled, clear-bottomed BD PureCoat amine-coated plates (BD, Bedford, MA) with a plating media containing DMEM, 10% dialyzed FBS and 1 µg/mL tetracycline. The next day, the cell culture medium was replaced with a dye-loading solution containing assay buffer (Hanks Balanced Salt Solution with 20 mM HEPES, pH 7.3), 0.01% (w/v) Pluronic F-127 (Life Technologies, Carlsbad, CA), and 1.2 µM of the thallium-sensitive dye Thallos-AM (TEFlabs, Austin, TX). Following 1 hr incubation at room temperature, the dye-loading solution was washed from the plates and replaced with 20 µL/well of assay buffer. The plates were transferred to a Hamamatsu Functional Drug Screening System 6000 (FDSS6000; Hamamatsu, Hamamatsu (or Bridgewater, NJ), Japan) where 20 µL/well of test compounds in assay buffer (as prepared below) were added and allowed to incubate with the cells for 20 min. After the incubation period, a baseline recording was collected at 1 Hz for 10 s (excitation 470±20 nm, emission 540±30 nm) followed by a Tl^+ stimulus buffer addition (10 µL/well) and data collection for an additional 4 min. The Tl^+ stimulus buffer contains in (mM) 125 NaHCO3, 1.8 CaSO4, 1 MgSO4, 5 glucose, 12 Tl2SO4, 10 HEPES, pH 7.4. For Tl^+ flux assays on the mammalian channels Kir2.x, Kir4.1 and Kir6.2/SUR1 expressing cells, the Tl^+ stimulus buffer contained 1.8 mM Tl2SO4. Also, Tl^+ flux assays on Kir3.1/3.2/mGlu8 expressing cell, required addition of an EC80 concentration of glutamate (Sigma-Aldrich, St. Louis, MO) with the Tl^+ stimulus buffer. The test compounds were transferred to daughter polypropylene 384-well plates (Greiner Bio-One, Monroe, NC) using an Echo555 liquid handler (Labcyte, Sunnyvale, CA), and then diluted into assay buffer to generate a 2X stock in 0.6% DMSO (0.3% final). For Tl^+ flux assays on Kir6.2/SUR1 expressing cells, test compounds were diluted in assay buffer containing diazoxide (250 µM final) to induce channel activation. Concentration-response curves (CRCs) were generated by screening compounds at 3-fold dilution series in 4-point (1 µM–30 µM) or 11-point (1 nM–30 µM) CRCs. Tl^+ flux data were analyzed as previously described, [21], [22] using a combination of Excel (Microsoft Corp, Redmond, WA) with XLfit add-in (IDBS, Guildford, Surrey, UK) and OriginPro (OriginLab, Northampton, MA) software. Raw data were opened in Excel and each data point in a given trace was divided by the first data point from that trace (static ratio) followed by subtraction of data points from control traces generated in the presence of vehicle controls. The slope of the fluorescence increase beginning 5 s after Tl^+ addition and ending 15 s after Tl^+ addition was calculated. To compare the effect of DMSO on AeKir1-mediated Tl^+ flux, a one-way ANOVA was performed with a Tukey's multiple comparison test. Prism software (GraphPad Software) was used to generate CRC from Tl^+ flux. Half-inhibition concentration (IC50) values were calculated from fits using a four parameter logistic equation.

Assay [2] relates to adult female mosquitoes (A. aegypti). Put plainly: Mosquito excretion experiments (excretory capacity). Particulars: probenecid 3.4 nmol per mosquito in 900 nL vehicle, 1 h after injection; mean ±SEM. It is filed as in vivo, Aedes aegypti. The method, then:
The Aedes aegypti mosquito colony used in the present study is identical to that described previously. As before, only adult female mosquitoes 3–10 days post emergence were utilized for experiments.
The excretory capacity of mosquitoes was measured as described. In brief, after anesthetizing mosquitoes on ice, their hemolymph was injected as described above with 900 nL of a K^+-PBS vehicle containing 1.15% DMSO, 0.077% β-cyclodextrin, and 0.008% Solutol, or the vehicle containing VU625 (0.77 mM) to deliver a dose of 690 pmol of VU625 per mosquito. In experiments where probenecid was used, the vehicle was supplemented with water- soluble probenecid […] to deliver a dose of 3.4 nmol of probenecid per mosquito. After injection, the mosquitoes were placed immediately in a graduated, packed-cell volume tube (MidSci, St. Louis, MO; 5 mosquitoes per tube) and held at 28°C. The volume of urine excreted at 60 min post injection was measured as described previously, and all mosquitoes were confirmed to be alive at the end of 60 min period. For each treatment, 6–18 independent trials of 5 mosquitoes per treatment were performed.
Prism (GraphPad Software) was used to generate a dose-response curve for the toxicity of VU625; the doses (x-axis) were first log transformed and then the mortality data was normalized using Prism, where the smallest value and largest values in a data set equal ‘0%’ and ‘100%’, respectively. The data were then fitted using a ‘biphasic’ algorithm (<100 constraint) to calculate potencies (ED25 and ED75 values). To compare 1) the toxic effects among the vehicle, probenecid, VU625, and VU625 + probenecid treatments, and 2) the excretory capacity among the vehicle, probenecid, VU625, and VU625 + probenecid treatments, one-way ANOVAs were performed with Newman-Keuls posttests.

The subject of assay [3] is mosquitoes. Put plainly: Toxicity when applied to the cuticle (topical). The format is in vivo. To be noted: Piermarini, unpublished observations.
For assay [4], the target named is AeKir2B (Aedes aegypti, UniProt L0EQ40). On the set-up: method as in PMID 24959745. Particulars: cited from earlier work.
Sequence of AeKir2B (L0EQ40 entry or part of it): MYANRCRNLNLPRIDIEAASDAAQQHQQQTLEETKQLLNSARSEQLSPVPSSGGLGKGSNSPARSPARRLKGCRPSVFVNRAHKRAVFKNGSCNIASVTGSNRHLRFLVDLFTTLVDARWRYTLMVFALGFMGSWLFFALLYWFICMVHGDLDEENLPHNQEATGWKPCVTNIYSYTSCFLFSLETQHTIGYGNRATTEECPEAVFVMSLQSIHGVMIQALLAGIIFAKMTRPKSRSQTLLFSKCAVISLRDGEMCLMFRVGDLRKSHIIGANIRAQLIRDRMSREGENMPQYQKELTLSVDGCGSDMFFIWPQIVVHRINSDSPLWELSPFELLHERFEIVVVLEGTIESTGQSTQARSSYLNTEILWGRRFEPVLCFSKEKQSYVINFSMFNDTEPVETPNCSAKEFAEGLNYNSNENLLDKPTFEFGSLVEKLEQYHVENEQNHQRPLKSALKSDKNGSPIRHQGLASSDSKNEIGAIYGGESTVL
The test system of assay [5] is adult female mosquitoes (A. aegypti). Also noted: method as in PMID 23734226, PMID 24959745. To be noted: within 24 h; cited from earlier work.
Assay [6] shares this test system. On the set-up: method as in PMID 23734226, PMID 24959745. Particulars: after loading hemolymph with 900 nl of a PBS vehicle; cited from earlier work.
Where [7] appears, read: Table 2, southern amide SAR, 11-point CRCs on AeKir1 in Tl+ flux, triplicate on two separate days.
The mark [8] stands for this setting: Table 3, central core SAR, 11-point CRCs on AeKir1 in Tl+ flux, triplicate on two separate days.

Sequence of AeKir1 (L0EQS9 entry or part of it): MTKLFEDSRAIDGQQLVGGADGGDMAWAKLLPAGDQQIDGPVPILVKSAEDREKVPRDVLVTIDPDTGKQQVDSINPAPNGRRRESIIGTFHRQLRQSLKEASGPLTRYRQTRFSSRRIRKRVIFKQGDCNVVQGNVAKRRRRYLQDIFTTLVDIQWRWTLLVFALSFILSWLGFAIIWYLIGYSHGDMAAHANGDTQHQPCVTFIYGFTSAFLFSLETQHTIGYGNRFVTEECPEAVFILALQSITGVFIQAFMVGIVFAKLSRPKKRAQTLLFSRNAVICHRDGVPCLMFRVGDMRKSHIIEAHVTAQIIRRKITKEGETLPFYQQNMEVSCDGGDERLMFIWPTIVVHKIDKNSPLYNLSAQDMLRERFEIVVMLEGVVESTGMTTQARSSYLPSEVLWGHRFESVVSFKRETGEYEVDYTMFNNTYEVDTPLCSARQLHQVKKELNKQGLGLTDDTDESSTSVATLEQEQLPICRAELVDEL

Turning to `COc1cccc(NS(=O)(=O)c2ccc3c(c2)CC(C)N3S(=O)(=O)C2CC2)c1` (stereo not shown) [3k], in assay [1] (setting [7]), the IC50 was 0.76 µM.

For the molecule `COc1cccc(NS(=O)(=O)c2ccc3c(c2)CC(C)N3C(=O)c2cccc(F)c2)c1` (stereo not shown) [3c], the half-inhibitory concentration (IC50) in assay [1] (setting [7]) was 5.2 ± 0.4 µM.

On to `COc1cccc(NS(=O)(=O)c2ccc3c(c2)CC(C)N3C(=O)c2ccc(C)cc2)c1` (stereo not shown) [3f], for which the IC50 in assay [1] (setting [7]) was greater than 30 µM.

With `COc1cccc(NS(=O)(=O)c2ccc3c(c2)cc(C)n3C)c1` [4b], the IC50 in assay [1] (setting [8]) stood at 0.97 ± 0.1 µM.

For the molecule `CCCN(CCC)S(=O)(=O)c1ccc(C(=O)O)cc1` [probenecid, reference compound], the “excretory capacity (urine excreted)” value in assay [2] amounted to 467.8±33.53 nL/female.

As to `COc1cccc(NS(=O)(=O)c2ccc3c(c2)CC(C)N3C(=O)c2ccccn2)c1` (stereo not shown) [3g], the IC50 in assay [1] (setting [7]) was 4.4 ± 0.5 µM.

For `COc1cccc(NS(=O)(=O)c2ccc3c(c2)CC(C)N3C(=O)c2cccc(C)c2)c1` (stereo not shown) [3e], the IC50 in assay [1] (setting [7]) came out at 3.87 ± 1.97 µM.

On to `COc1cccc(NS(=O)(=O)c2ccc3c(c2)CC(C)N3C(=O)c2ccccc2C)c1` (stereo not shown) [3d], for which the IC50 in assay [1] (setting [7]) stood at 4.41 ± 1.11 µM.

For the molecule `COc1cccc(NS(=O)(=O)c2ccc3c(c2)OCC(=O)N3)c1` [4d], the IC50 in assay [1] (setting [8]) was greater than 30 µM.

Take `COc1cccc(NS(=O)(=O)c2ccc3c(ccn3C)c2)c1` [4a]: the IC50 in assay [1] (setting [8]) is 0.55 ± 0.08 µM.

`COc1cccc(NS(=O)(=O)c2ccc3c(c2)CCN3C(C)=O)c1` [4f]: the “loss of potency relative to VU625” value in assay [1] (AeKir1 Tl+ flux) was roughly 3 fold. The IC50 in assay [1] (setting [8]) came to 1.15 ± 0.05 µM.

Take `O=[N+]([O-])c1ccc(CN2CCOCCOCCN(Cc3ccc([N+](=O)[O-])cc3)CCOCC2)cc1` [VU590]: the “toxicity when applied to the cuticle” value in assay [3] is listed as “lack of topical activity”. Besides, the “effect on AeKir2B” value in assay [4] is on record as “selective inhibitor of AeKir1 over AeKir2B”. The “effect of hemolymph injection on mosquitoes” value in assay [5] is on record as “incapacitation and/or death within 24 h”. Further, in assay [6], the “effect on excretory capacity” value is “decrease in the excretory capacity”.

As for `COc1cccc(NS(=O)(=O)c2ccc3c(c2)CC(C)N3C(=O)C(F)(F)F)c1` (stereo not shown) [3b], in assay [1] (setting [7]), the IC50 stood at 0.58 ± 0.04 µM.

On to `COc1cccc(NS(=O)(=O)c2ccc3c(c2)CC(C)N3S(=O)(=O)C(C)(C)C)c1` (stereo not shown) [3l], for which the IC50 in assay [1] (setting [7]) came out at 0.82 ± 0.48 µM.

Turning to `Cc1ccc(OCC(O)Cn2c(=N)n(Cc3ccccc3)c3ccccc32)cc1` (stereo not shown) [VU573], the “toxicity when applied to the cuticle” value in assay [3] was “lack of topical activity”. Further, the “effect on AeKir2B” value in assay [4] was “activates AeKir2B”. Moreover, in assay [5], the “effect of hemolymph injection on mosquitoes” value was “incapacitation and/or death within 24 h”. The “effect on excretory capacity” value in assay [6] is listed as “decrease in the excretory capacity”.

Regarding `COc1cccc(NS(=O)(=O)c2ccc3c(c2)CCC(=O)N3)c1` [4c], the IC50 in assay [1] (setting [8]) is greater than 30 µM.

For the molecule `COc1cccc(NS(=O)(=O)c2ccc3c(c2)CC(C)N3S(C)(=O)=O)c1` (stereo not shown) [3j], the IC50 in assay [1] (setting [7]) was 2.82 ± 0.48 µM.

Regarding `COc1cccc(NS(=O)(=O)c2ccc3c(c2)CC(=O)N3C)c1` [4e], the IC50 in assay [1] (setting [8]) is greater than 30 µM.

In the case of `COc1cccc(NS(=O)(=O)c2ccc3c(c2)CC(C)N3C(=O)N(C)C)c1` (stereo not shown) [3i], in assay [1] (setting [7]), the IC50 is 2.09 ± 0.49 µM.

Turning to `COc1cccc(NS(=O)(=O)c2ccc3c(c2)CC(C)N3S(=O)(=O)c2ccccc2)c1` (stereo not shown) [3h], in assay [1] (setting [7]), the “IC50±SEM” value is listed as “less activity” and the IC50 worked out at 3.29 ± 0.89 µM.

For orientation: IC50 means the midpoint of a concentration-inhibition curve.
